Experimental data as given in the NIST ThermoML archive (doi:10.1016/j.fluid.2004.12.013).

Assay: excess molar enthalpy (molar enthalpy of mixing); xn = mol fraction of the nth substance listed
Settings: 298.15 K, 101.3 kPa, Liquid

CCCCCCCCC [nonane] + CCCCCO
Settings | excess molar enthalpy [kJ/mol]
x2 = 0.0545 | 0.414
x2 = 0.0997 | 0.516
x2 = 0.1605 | 0.59
x2 = 0.2245 | 0.648
x2 = 0.2862 | 0.681
x2 = 0.3535 | 0.694
x2 = 0.4025 | 0.689
x2 = 0.4455 | 0.687
x2 = 0.4998 | 0.67
x2 = 0.5489 | 0.637
x2 = 0.6006 | 0.593
x2 = 0.6527 | 0.541
x2 = 0.7058 | 0.469
x2 = 0.7524 | 0.41
x2 = 0.7962 | 0.33
x2 = 0.8478 | 0.257
x2 = 0.8935 | 0.172
x2 = 0.9382 | 0.086

CCCCCCCCC [nonane] + COC(C)(C)C
Settings | excess molar enthalpy [kJ/mol]
x2 = 0.0816 | 0.131
x2 = 0.1472 | 0.225
x2 = 0.1747 | 0.265
x2 = 0.2383 | 0.345
x2 = 0.2404 | 0.345
x2 = 0.3312 | 0.428
x2 = 0.3912 | 0.457
x2 = 0.4867 | 0.486
x2 = 0.6601 | 0.437
x2 = 0.7157 | 0.392
x2 = 0.7399 | 0.371
x2 = 0.7773 | 0.337
x2 = 0.8129 | 0.305
x2 = 0.8723 | 0.231
x2 = 0.895 | 0.2
x2 = 0.9235 | 0.173
x2 = 0.9285 | 0.141
x2 = 0.9459 | 0.126
x2 = 0.9573 | 0.104
x2 = 0.9632 | 0.082
